This test addresses XIAP (Homo sapiens). Put plainly: Fluorescence polarization was measured on an Ultra plate reader (Tecan) at excitation and emission wavelengths of 485 and 530 nm, respectively. The equilibrium binding curves were drawn by plotting millipolarization units (mP) as a function of recombinant XIAP concentration. All experiments were performed in black, flat-bottomed, 96-well mic. Conditions: pH 7.5. (In general: In fluorescence polarisation assays a small probe gives low polarisation when free and higher when bound to something large.)

pIC50: −log10 of the molar value.

`CC[C@H](N)C(=O)N[C@@H]1C(=O)N2[C@@H](CC[C@@H]1COC(=O)c1ccccc1)CC[C@H]2C(=O)NC(c1ccccc1)c1ccccc1` [1-aza-2-oxobicyclo[5.3.0]decane scaffold, 12b]: the pIC50 is 6.22. Turning to `CC[C@H](N)C(=O)N[C@@H]1C(=O)N2[C@@H](CC[C@@H]1CCN)CC[C@H]2C(=O)NC(c1ccccc1)c1ccccc1` [(3S,6S,7R,9aS)-6-[(2S)-2-aminobutanamido]-7-(2-aminoethyl)-N-(diphenylmethyl)-5-oxo-octahydro-1H-pyrrolo[1,2-a]azepine-3-carboxamide], the pIC50 was 6.60.

A word on the pIC50: it is the negative decadic logarithm of the IC50, by convention in mol/L.

These data come from BindingDB's records for doi:10.1016/j.bmc.2009.07.009 (Universita Degli Studi Di Milano, 2009).
